Values of other authors, collected in publication PMC10177510, “A Multicenter, Open-Label, Phase I/II Study of FN-1501 in Patients with Advanced Solid Tumors” (Cancers, 2023).
Values after ≈ are worked out from the molar mass of the structure shown. Read-outs that look alike come from different tables or passages of the source.

Key:
MOLM-13 = system: MOLM-13; set-up: method as in data on file, Fosun Pharma; settings: ref data on file, Fosun Pharma; cited from earlier work
[1] = preclinical, no reference given, cited from earlier work

## CN1CCN(Cc2ccc(NC(=O)c3[nH]ncc3Nc3ncnc4[nH]ccc34)cc2)CC1 [FN-1501]
MOLM-13
  IC50: 5.2 ng/mL (≈ 0.0121 µM)
[1]; 5 mg
  Css,u in mice: roughly 5 ng/mL
[1]; 20 mg
  Css,u in mice: ~50 ng/mL
